Laboratory results as given in patent US20240108740A1, “THERAPEUTIC COMPOSITIONS INCLUDING SPN10 AND USES THEREOF” (Stealth BioTherapeutics Inc., priority 2022, published 2024).
Residues, ends and D or L forms follow the SMILES beside them.

Legend:
[1] = test system: CD36 knockout (CD36 KO) mice; assay: Example 3: acute cerebral ischemia in CD36 knockout mice; type: in vivo, mouse
Procedure: CD36 knockout (CD36 KO) mice will be subjected to acute cerebral ischemia as described in Example 2. CD36 KO mice will be given either saline vehicle (Veh) (i.p., n=5), peptide conjugates (2 mg/kg or 5 mg/kg, i.p., n=6), aromatic-cationic peptides (e.g., an equivalent molar dose of aromatic-cationic peptide based on the concentration of the aromatic-cationic peptide administered in the peptide conjugate treatment group), SPN10(s) (e.g., an equivalent molar dose of SPN10 based on the concentration of SPN10 administered in the peptide conjugate treatment group), or SPN10(s) in combination with aromatic-cationic peptides (e.g., an equivalent molar dose of SPN10 based on the concentration of SPN10 administered in the peptide conjugate treatment group and an equivalent molar dose of aromatic-cationic peptide based on the concentration of aromatic-cationic peptide administered in the peptide conjugate treatment group) at 0, 6, 24 and 48 hours following a 30 minute period of ischemia. Infarct volume and hemispheric swelling in CD36 KO mice are expected to be similar in subjects receiving saline, SPN10(s) (alone or in combination with aromatic-cationic peptides), aromatic-cationic peptides and peptide conjugates.

[2] = test system: Isolated guinea pig hearts; assay: Example 28: lipid peroxidation in hearts subjected to ischemia and reperfusion; details: brief intervals of ischemia and reperfusion; compared to untreated controls
Description: Isolated guinea pig hearts will be perfused in a retrograde manner in a Langendorff apparatus and subjected to various intervals of ischemia-reperfusion. Hearts will be fixed immediately, embedded in paraffin, and sectioned. Immunohistochemical analysis of 4-hydroxy-2-nonenol (HNE)-modified proteins will be carried out using an anti-HNE antibody.

[3] = test system: Islet cells isolated from mouse pancreas; assay: Example 29: viability of isolated pancreatic islet cells; type: cell-based; details: added to isolation buffers
Description: Islet cells will be isolated from mouse pancreas according to standard procedures. Peptide conjugates, aromatic-cationic peptides, SPN10(s) with or without aromatic-cationic peptides or control vehicle will be added to isolation buffers used throughout the isolation procedure. Mitochondrial membrane potential will be measured using TMRM (red) and visualized by confocal microscopy, and apoptosis will be measured by flow cytometry using annexin V and necrosis by propidium iodide.

Sprague Dawley rats = assay: Example 37: acute renal injury caused by ischemia-reperfusion; type: in vivo, rat
Procedure: […] Sprague Dawley rats (250-300 g) will be assigned to one of the following groups: (1) sham surgery (no I/R); (2) I/R+saline vehicle; (3) I/R+peptide conjugates; (4) I/R+aromatic-cationic peptides; (5) I/R+SPN10(s); (6) I/R+SPN10(s) and aromatic-cationic peptides. Peptide conjugates (3 mg/kg in saline); aromatic-cationic peptides (an equivalent molar dose of aromatic-cationic peptide based on the concentration of the aromatic-cationic peptide administered in the peptide conjugate treatment group); SPN10(s) (an equivalent molar dose of SPN10 based on the concentration of SPN10 administered in the peptide conjugate treatment group) or SPN10(s) in combination with aromatic-cationic peptides (e.g., an equivalent molar dose of SPN10 based on the concentration of SPN10 administered in the peptide conjugate treatment group and an equivalent molar dose of aromatic-cationic peptide based on the concentration of aromatic-cationic peptide administered in the peptide conjugate treatment group) will be administered 30 minutes before ischemia and immediately before reperfusion. Control animals will be given saline alone according to the same schedule.
Rats will be anesthetized with a mixture of ketamine (90 mg/kg, i.p.) and xylazine (4 mg/kg, i.p.). […] Renal function will be determined by measuring levels of blood urea nitrogen (BUN) and serum creatinine (BioAssay Systems DIUR-500 and DICT-500).
Renal Morphologic Examination: Kidneys will be fixed in 10% neutral-buffered formalin and embedded in paraffin wax for sectioning. Three-micron sections will be stained with hematoxylin-eosin (H&E) and periodic acid-Schiff (PAS), and analyzed by light microscopy. Lesions will be scored based on 1) mitosis and necrosis of individual cells, 2) necrosis of all cells in adjacent proximal convoluted tubules with survival of surrounding tubules, 3) necrosis confined to the distal third of the proximal convoluted tubule with a band of necrosis extending across the inner cortex, and 4) necrosis affecting all three segments of the proximal convoluted tubule. […]

N=C(N)NCCC[C@H](NC(=O)[C@@H](N)Cc1c[nH]c2ccccc12)C(=O)N[C@@H](Cc1c[nH]c2ccccc12)C(=O)N[C@@H](CCCCN)C(N)=O [SPN10, H-L-Trp-L-Arg-L-Trp-L-Lys-NH2] (H-WRWK-NH2)
infarct volume and hemispheric swelling in CD36 KO mice ([1]; compared with saline): similar | GSH depletion in the ipsilateral cortex in CD36 KO mice ([1]; mouse, in vivo): fail to further prevent GSH depletion | lipid peroxidation (HNE-modified proteins) [2]: prevent lipid peroxidation | apoptosis of islet cells (annexin V) [3]: reduce apoptosis | islet cell viability (mitochondrial membrane potential) [3]: increase islet cell viability | BUN and serum creatinine values (Sprague Dawley rats; 30 minutes before ischemia and immediately before reperfusion, 24 hours of reperfusion): improve BUN and serum creatinine values | tubular cell apoptosis after ischemia and reperfusion (Sprague Dawley rats; rat, in vivo): prevent tubular cell apoptosis | tubular cell injury after ischemia and reperfusion (Sprague Dawley rats; rat, in vivo): prevent tubular cell injury
